The subject of one series is human hepatocytes. As to the kind of experiment: Metabolic clearance in 3D perfused bioreactor. The settings on record: day 4, four experiments; probe incubated 24 h; disappearance by LC/MS/MS.
For a further series, the system named is rat hepatocytes. The series can be described thus: Metabolic clearance in 3D perfused bioreactor. The settings on record: day 6, two experiments; probe incubated 24 h; disappearance by LC/MS/MS.

Consider `Cc1ncc2n1-c1ccc(Cl)cc1C(c1ccccc1F)=NC2` [Midazolam], for which the “Clearance values, Human LiverChip” value in the series with human hepatocytes was 13 µL per min, per million cells. Further, in the series on rat hepatocytes, the “Clearance values, Rat LiverChip” value was 38 µL per min, per million cells.

`C=CCN1CC[C@]23c4c5ccc(O)c4O[C@H]2C(=O)CC[C@@]3(O)[C@H]1C5` [Naloxone]: the “Clearance values, Human LiverChip” value in the series on human hepatocytes is 29 µL per min, per million cells. The “Clearance values, Rat LiverChip” value with rat hepatocytes was 39 µL per min, per million cells.

(Values after article PMC4110978 (Expert opinion on drug metabolism & toxicology, 2009).)
